Test [1] concerns the target intracellular phosphorylation of EGFR (Tyr1068) in PC-9 cells (Ex19Del) (Homo sapiens, UniProt P00533, DEL746-750). Nature of the test: PC-9 pEGFR AlphaLISA assay. Format: cell-based. To be noted: 4 hours compound incubation, read-out: Ext pEGFR_PC-9 Ex19Del IC50. Background: Alpha assays give light when donor and acceptor beads are brought close together.
The target of a further test is T1, EGFR (d746-750) (Homo sapiens, UniProt P00533, DEL746-750).
T1 construct: purchased SignalChem E10-122JG
Nature of the test: Biochemical EGFR inhibition assay (Caliper mobility shift), EGFR (d746-750). The settings on record: read-out: Enz EGFR_Exon19-del746-750 IC50.

The target in another test is T2, EGFR L858R (Homo sapiens, UniProt P00533, L858R).
T2 construct: purchased SignalChem E10-122BG
Nature of the test: Biochemical EGFR inhibition assay (Caliper mobility shift), EGFR L858R. To be noted: read-out: Enz EGFR_L858R IC50.

The mark [2] stands for this setting: 1.0 mM ATP or ATP Km, room temperature (25° C.).

Where two headings read alike, the source gives them in different places.

T2 sequence (P00533 25-1210 L858R): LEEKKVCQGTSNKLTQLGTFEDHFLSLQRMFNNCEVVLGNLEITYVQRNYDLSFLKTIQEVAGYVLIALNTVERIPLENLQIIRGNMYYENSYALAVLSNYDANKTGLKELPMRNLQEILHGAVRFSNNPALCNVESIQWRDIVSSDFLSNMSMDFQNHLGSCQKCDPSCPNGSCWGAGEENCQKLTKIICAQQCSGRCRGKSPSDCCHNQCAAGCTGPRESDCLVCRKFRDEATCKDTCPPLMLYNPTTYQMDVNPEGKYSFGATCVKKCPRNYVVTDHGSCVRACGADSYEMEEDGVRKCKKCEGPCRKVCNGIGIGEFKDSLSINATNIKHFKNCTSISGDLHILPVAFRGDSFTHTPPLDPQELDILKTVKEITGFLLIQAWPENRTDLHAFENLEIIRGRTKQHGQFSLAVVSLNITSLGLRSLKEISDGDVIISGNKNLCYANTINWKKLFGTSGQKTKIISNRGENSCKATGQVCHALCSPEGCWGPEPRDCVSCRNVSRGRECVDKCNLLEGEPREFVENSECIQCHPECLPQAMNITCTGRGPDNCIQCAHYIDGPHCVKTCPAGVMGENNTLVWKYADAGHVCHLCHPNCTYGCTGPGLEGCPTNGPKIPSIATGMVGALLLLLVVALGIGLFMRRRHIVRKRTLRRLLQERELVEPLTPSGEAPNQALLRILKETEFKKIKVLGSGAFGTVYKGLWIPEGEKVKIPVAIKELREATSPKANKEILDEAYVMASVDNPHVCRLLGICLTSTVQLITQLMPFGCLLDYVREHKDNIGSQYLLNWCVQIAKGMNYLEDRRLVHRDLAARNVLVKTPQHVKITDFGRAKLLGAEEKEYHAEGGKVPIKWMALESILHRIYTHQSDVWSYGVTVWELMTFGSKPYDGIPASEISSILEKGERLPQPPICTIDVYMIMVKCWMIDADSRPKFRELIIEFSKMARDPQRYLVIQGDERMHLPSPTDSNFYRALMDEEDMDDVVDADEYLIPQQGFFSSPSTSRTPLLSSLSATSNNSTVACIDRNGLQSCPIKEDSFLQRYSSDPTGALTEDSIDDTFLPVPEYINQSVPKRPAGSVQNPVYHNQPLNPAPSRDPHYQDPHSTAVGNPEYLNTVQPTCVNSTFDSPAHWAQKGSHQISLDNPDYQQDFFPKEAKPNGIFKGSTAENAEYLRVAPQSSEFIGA
T1 sequence (P00533 with tags, fused parts or gaps DEL746-750 limits assumed): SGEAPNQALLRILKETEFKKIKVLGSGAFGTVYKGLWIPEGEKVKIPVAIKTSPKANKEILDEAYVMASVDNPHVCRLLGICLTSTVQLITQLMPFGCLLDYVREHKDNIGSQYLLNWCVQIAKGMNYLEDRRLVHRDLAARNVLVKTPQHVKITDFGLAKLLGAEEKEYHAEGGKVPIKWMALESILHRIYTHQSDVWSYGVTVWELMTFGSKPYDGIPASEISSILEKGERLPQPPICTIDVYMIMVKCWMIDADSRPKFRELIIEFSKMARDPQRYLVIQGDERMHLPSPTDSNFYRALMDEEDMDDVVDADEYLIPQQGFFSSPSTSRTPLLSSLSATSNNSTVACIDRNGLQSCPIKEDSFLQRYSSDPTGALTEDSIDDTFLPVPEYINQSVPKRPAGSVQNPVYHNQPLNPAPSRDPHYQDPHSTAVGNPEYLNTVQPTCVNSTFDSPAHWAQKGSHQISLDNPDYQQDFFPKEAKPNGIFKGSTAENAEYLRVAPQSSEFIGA
Sequence of intracellular phosphorylation of EGFR (Tyr1068) in PC-9 cells (Ex19Del) (P00533 with tags, fused parts or gaps DEL746-750): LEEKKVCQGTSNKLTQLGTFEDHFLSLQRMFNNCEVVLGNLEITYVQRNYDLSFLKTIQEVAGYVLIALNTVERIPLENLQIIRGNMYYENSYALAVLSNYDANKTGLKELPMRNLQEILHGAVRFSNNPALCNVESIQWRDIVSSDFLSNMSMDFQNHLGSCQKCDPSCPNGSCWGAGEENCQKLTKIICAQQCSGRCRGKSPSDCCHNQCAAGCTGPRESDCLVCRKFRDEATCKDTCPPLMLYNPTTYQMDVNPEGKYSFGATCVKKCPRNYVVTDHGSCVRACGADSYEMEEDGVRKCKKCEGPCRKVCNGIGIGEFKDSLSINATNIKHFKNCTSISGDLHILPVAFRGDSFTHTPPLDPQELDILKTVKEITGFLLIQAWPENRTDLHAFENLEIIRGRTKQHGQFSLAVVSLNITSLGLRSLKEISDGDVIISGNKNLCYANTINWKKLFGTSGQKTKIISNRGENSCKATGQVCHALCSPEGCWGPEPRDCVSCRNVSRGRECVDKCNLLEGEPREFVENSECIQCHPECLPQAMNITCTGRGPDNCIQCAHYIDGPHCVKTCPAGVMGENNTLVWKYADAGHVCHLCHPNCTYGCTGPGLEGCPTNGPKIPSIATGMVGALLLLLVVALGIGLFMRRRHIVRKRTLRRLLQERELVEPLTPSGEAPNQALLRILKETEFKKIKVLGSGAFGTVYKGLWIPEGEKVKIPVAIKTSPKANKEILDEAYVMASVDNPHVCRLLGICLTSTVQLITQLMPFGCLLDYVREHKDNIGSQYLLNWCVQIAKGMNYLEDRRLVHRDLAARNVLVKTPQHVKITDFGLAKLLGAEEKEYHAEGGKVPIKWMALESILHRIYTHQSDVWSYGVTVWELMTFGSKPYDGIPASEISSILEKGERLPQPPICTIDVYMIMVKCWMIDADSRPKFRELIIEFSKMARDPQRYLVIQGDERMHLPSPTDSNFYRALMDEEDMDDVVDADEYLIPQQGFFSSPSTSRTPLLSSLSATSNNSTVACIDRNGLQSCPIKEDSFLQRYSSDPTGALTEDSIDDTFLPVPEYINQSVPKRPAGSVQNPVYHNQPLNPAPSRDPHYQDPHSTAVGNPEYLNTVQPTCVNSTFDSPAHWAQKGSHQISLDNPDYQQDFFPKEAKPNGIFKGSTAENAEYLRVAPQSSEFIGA

By IC50 is commonly meant the point on the concentration scale where inhibition reaches its midpoint. As to `C[C@@H](Oc1cc(-c2cnn(C)c2)cc2ncnc(Nc3ccc4ncccc4c3F)c12)[C@@H]1COCCN1C` (single isomer, unassigned) [Example 125], the 50% inhibitory concentration (IC50) is 10.1 to 50 nM in test [1], under 10 nM at EGFR (d746-750) (setting [2]) and under 10 nM at EGFR L858R (setting [2]).
As for `Cc1cnn(-c2cc(O[C@H](C)CN(C)C)c3c(Nc4ccc5ncccc5c4F)ncnc3c2)c1` [Example 83, (R)-5-((1-(dimethylamino)propan-2-yl)oxy)-N-(5-fluoroquinolin-6-yl)-7-(4-methyl-1H-pyrazol-1-yl)quinazolin-4-amine], the 50% inhibitory concentration (IC50) was at most 10 nM in test [1], under 10 nM at EGFR (d746-750) and under 10 nM on EGFR L858R.
As to `CC(CN(C)C)Oc1cc(-c2cnn(C)c2)cc2ncnc(Nc3ccc4ncccc4c3)c12` (racemic) [Example 42, (R)-5-((1-(dimethylamino)propan-2-yl)oxy)-7-(1-methyl-1H-pyrazol-4-yl)-N-(quinolin-6-yl)quinazolin-4-amine and (S)-5-((1-(dimethylamino)propan-2-yl)oxy)-7-(1-methyl-1H-pyrazol-4-yl)-N-(quinolin-6-yl)quinazolin-4-amine], the IC50 in test [1] was at most 10 nM; at EGFR (d746-750) it was under 10 nM; on EGFR L858R it was under 10 nM.
Turning to `C[C@H](CN(C)C)Oc1cc(-c2cnn(C)c2)cc2nc[n+]([O-])c(Nc3ccc4ncccc4c3F)c12` (single isomer, unassigned) [Example 128], the results for the 50% inhibitory concentration (IC50) (in test [1]; on EGFR (d746-750); at EGFR L858R) were over 50.1 nM, 10.1 to 50 nM and 10.1 to 50 nM, respectively.
On to `C[C@H](CN(C)C)Oc1cc(N2CCOC[C@@H]2CO)cc2ncnc(Nc3ccc4ncccc4c3F)c12` [Example 92, ((S)-4-(5-(((R)-1-(dimethylamino)propan-2-yl)oxy)-4-((5-fluoroquinolin-6-yl)amino)quinazolin-7-yl)morpholin-3-yl)methanol], for which the IC50 was 10.1 to 50 nM in test [1], under 10 nM at EGFR (d746-750) and 10.1 to 50 nM at EGFR L858R.
For the molecule `C[C@@H](Oc1cc(-c2cnn(C(C)(C)CO)c2)cc2ncnc(Nc3ccc4ncccc4c3F)c12)C1COC1` [Example 47, (R)-2-(4-(4-(5-fluoroquinolin-6-ylamino)-5-(1-(oxetan-3-yl)ethoxy)quinazolin-7-yl)-1H-pyrazol-1-yl)-2-methylpropan-1-ol], the 50% inhibitory concentration (IC50) in test [1] is at most 10 nM; at EGFR (d746-750), under 10 nM; on EGFR L858R, under 10 nM.
Take `C[C@H](CN(C)C)Oc1cc(-c2cnn(CC(F)F)c2)cc2ncnc(Nc3ccc4ncccc4c3F)c12` [Example 55, (R)-7-(1-(2,2-difluoroethyl)-1H-pyrazol-4-yl)-5-((1-(dimethylamino)propan-2-yl)oxy)-N-(5-fluoroquinolin-6-yl)quinazolin-4-amine]: the IC50 in test [1] is at most 10 nM; at EGFR (d746-750) it was under 10 nM; at EGFR L858R it was under 10 nM.
Regarding `C[C@H](CN(C)C)Oc1cc(N2C3COCC2C3)cc2ncnc(Nc3ccc4ncccc4c3F)c12` [Example 89, 7-(3-oxa-6-azabicyclo[3.1.1]heptan-6-yl)-5-(((R)-1-(dimethylamino)propan-2-yl)oxy)-N-(5-fluoroquinolin-6-yl)quinazolin-4-amine], the IC50 (in test [1]; on EGFR (d746-750); on EGFR L858R) was over 50.1 nM each time.
With `C[C@@H](Oc1cc(-c2cnn(CCO)c2)cc2ncnc(Nc3ccc4ncccc4c3F)c12)C1COC1` [Example 51, (R)-2-(4-(4-((5-fluoroquinolin-6-yl)amino)-5-(1-(oxetan-3-yl)ethoxy)quinazolin-7-yl)-1H-pyrazol-1-yl)ethan-1-ol], the IC50 in test [1] was at most 10 nM; at EGFR (d746-750), under 10 nM; on EGFR L858R, under 10 nM.
Take `C[C@H](Oc1cc(-c2cnn(C)c2)cc2ncnc(Nc3ccc4ncccc4c3F)c12)[C@@H]1CCCN1C` (single isomer, unassigned) [Example 145]: the IC50 in test [1] is over 50.1 nM; on EGFR (d746-750) (setting [2]) it was 10.1 to 50 nM; at EGFR L858R (setting [2]) it was 10.1 to 50 nM.
As for `C[C@H](CN(C)C)Oc1cc(N2CCOCC2)cc2ncnc(Nc3ccc4ncccc4c3F)c12` [Example 65, (R)-5-((1-(dimethylamino)propan-2-yl)oxy)-N-(5-fluoroquinolin-6-yl)-7-morpholinoquinazolin-4-amine], the IC50 is at most 10 nM in test [1], under 10 nM on EGFR (d746-750) and 10.1 to 50 nM at EGFR L858R.
For the molecule `C[C@@H](Oc1cc(-c2cnn(C)c2)cc2ncnc(Nc3ccc4ncccc4c3F)c12)C1COC1` (single isomer, unassigned) [Example 1, (R)—N-(5-fluoroquinolin-6-yl)-7-(1-methyl-1H-pyrazol-4-yl)-5-(1-(oxetan-3-yl)ethoxy)quinazolin-4-amine or (S)—N-(5-fluoroquinolin-6-yl)-7-(1-methyl-1H-pyrazol-4-yl)-5-(1-(oxetan-3-yl)ethoxy)quinazolin-4-amine], the IC50 in test [1] was at most 10 nM; on EGFR (d746-750) (setting [2]) it was under 10 nM; on EGFR L858R (setting [2]), under 10 nM.
With `C[C@H](CN(C)C)Oc1cc(N2CCOC3(CC3)C2)cc2ncnc(Nc3ccc4ncccc4c3F)c12` [Example 91, (R)-5-((1-(dimethylamino)propan-2-yl)oxy)-N-(5-fluoroquinolin-6-yl)-7-(4-oxa-7-azaspiro[2.5]octan-7-yl)quinazolin-4-amine], the figures for the IC50 (in test [1]; on EGFR (d746-750); on EGFR L858R) were over 50.1 nM, 10.1 to 50 nM and over 50.1 nM, respectively.
As to `C[C@H](CN(C)C)Oc1cc(-c2cnn(C)c2)cc2ncnc(Nc3ccc4ncccc4c3F)c12` (single isomer, unassigned) [Example 5, (R)-5-((1-(dimethylamino)propan-2-yl)oxy)-N-(5-fluoroquinolin-6-yl)-7-(1-methyl-1H-pyrazol-4-yl)quinazolin-4-amine or (S)-5-((1-(dimethylamino)propan-2-yl)oxy)-N-(5-fluoroquinolin-6-yl)-7-(1-methyl-1H-pyrazol-4-yl)quinazolin-4-amine], the values for the IC50 (in test [1]; at EGFR (d746-750) (setting [2]); at EGFR L858R (setting [2])) were at most 10 nM, under 10 nM and under 10 nM, respectively.
As to `C[C@H](CN(C)C)Oc1cc(N2CCC(C)(O)CC2)cc2ncnc(Nc3ccc4ncccc4c3F)c12` [Example 94, (R)-1-(5-((1-(dimethylamino)propan-2-yl)oxy)-4-((5-fluoroquinolin-6-yl)amino)quinazolin-7-yl)-4-methylpiperidin-4-ol], the IC50 in test [1] was 10.1 to 50 nM; at EGFR (d746-750), under 10 nM; on EGFR L858R, 10.1 to 50 nM.
As for `C[C@@H](Oc1cc(N2CC[C@@H](N(C)C)C2)cc2ncnc(Nc3ccc4ncccc4c3F)c12)C1COC1` [Example 79, 7—((R)-3-(dimethylamino)pyrrolidin-1-yl)-N-(5-fluoroquinolin-6-yl)-5-((R)-1-(oxetan-3-yl)ethoxy)quinazolin-4-amine], the IC50 in test [1] is at most 10 nM; on EGFR (d746-750), under 10 nM; on EGFR L858R, under 10 nM.
On to `C[C@@H](Oc1cc(N2CC[C@H](N(C)C)C2)cc2ncnc(Nc3ccc4ncccc4c3F)c12)C1COC1` [Example 80, 7—((S)-3-(dimethylamino)pyrrolidin-1-yl)-N-(5-fluoroquinolin-6-yl)-5-((R)-1-(oxetan-3-yl)ethoxy)quinazolin-4-amine], for which the figures for the IC50 (in test [1]; at EGFR (d746-750); at EGFR L858R) were at most 10 nM, under 10 nM and under 10 nM, respectively.
With `CO[C@H]1CCN(c2cc(O[C@H](C)C3COC3)c3c(Nc4ccc5ncccc5c4F)ncnc3c2)C1` (single isomer, unassigned) [Example 85b, N-(5-fluoroquinolin-6-yl)-7-((S)-3-methoxypyrrolidin-1-yl)-5-((R)-1-(oxetan-3-yl)ethoxy)quinazolin-4-amine or N-(5-fluoroquinolin-6-yl)-7-((R)-3-methoxypyrrolidin-1-yl)-5-((R)-1-(oxetan-3-yl)ethoxy)quinazolin-4-amine], the IC50 in test [1] is at most 10 nM; at EGFR (d746-750) (setting [2]), under 10 nM; on EGFR L858R (setting [2]), under 10 nM.
`C[C@H](CN(C)C)Oc1cc(N2CC(C)(O)C2)cc2ncnc(Nc3ccc4ncccc4c3F)c12` [Example 93, (R)-1-(5-((1-(dimethylamino)propan-2-yl)oxy)-4-((5-fluoroquinolin-6-yl)amino)quinazolin-7-yl)-3-methylazetidin-3-ol]: the IC50 in test [1] is 10.1 to 50 nM; on EGFR (d746-750), under 10 nM; at EGFR L858R, 10.1 to 50 nM.
For the molecule `C[C@H](CN(C)C)Oc1cc(N2CC[C@H](C(C)(C)O)C2)cc2ncnc(Nc3ccc4ncccc4c3F)c12` [Example 73, 2—((S)-1-(5-(((R)-1-(dimethylamino)propan-2-yl)oxy)-4-((5-fluoroquinolin-6-yl)amino)quinazolin-7-yl)pyrrolidin-3-yl)propan-2-ol], the IC50 in test [1] is at most 10 nM; on EGFR (d746-750), under 10 nM; on EGFR L858R, under 10 nM.
Consider `C[C@H](CN(C)C)Oc1cc(N2CC3(CCS3(=O)=O)C2)cc2ncnc(Nc3ccc4ncccc4c3F)c12` [Example 97, (R)-6-(5-((1-(dimethylamino)propan-2-yl)oxy)-4-((5-fluoroquinolin-6-yl)amino)quinazolin-7-yl)-1-thia-6-azaspiro[3.3]heptane 1,1-dioxide], for which the IC50 in test [1] was at most 10 nM; at EGFR (d746-750), under 10 nM; at EGFR L858R, under 10 nM.
With `C[C@@H](Oc1cc(N2CC3CC(C2)O3)cc2ncnc(Nc3ccc4ncccc4c3F)c12)C1COC1` [Example 59, 7-(6-oxa-3-azabicyclo[3.1.1]heptan-3-yl)-N-(5-fluoroquinolin-6-yl)-5-((R)-1-(oxetan-3-yl)ethoxy)quinazolin-4-amine], the IC50 was at most 10 nM in test [1], under 10 nM on EGFR (d746-750) and under 10 nM on EGFR L858R.

For the origin of these results see patent US12662465B2, “EGFR inhibitors” (Blueprint Medicines Corporation, priority 2021, dated 2026).
